Converted amounts (≈) assume the structure as drawn.
What was measured:
Format in all cases: functional
[1] = tested on: Citrobacter freundii; test: Antibacterial activity against ceftazidime-susceptible Citrobacter freundii assessed as resistant isolates by CLSI M7-A7 broth microdilution method
[2] = tested on: Serratia marcescens; test: Antibacterial activity against ceftazidime-susceptible Serratia marcescens by CLSI M7-A7 broth microdilution method
[3] = tested on: Proteus mirabilis; test: Antibacterial activity against ceftazidime-susceptible Proteus mirabilis assessed as susceptible isolates by CLSI M7-A7 broth microdilution method
[4] = tested on: Enterobacter cloacae; test: Antibacterial activity against ceftazidime-nonsusceptible Enterobacter cloacae by CLSI M7-A7 broth microdilution method
[5] = tested on: Klebsiella pneumoniae; test: Antibacterial activity against ceftazidime-susceptible Klebsiella pneumoniae by CLSI M7-A7 broth microdilution method
[6] = tested on: Proteus mirabilis; test: Antibacterial activity against ceftazidime-susceptible Proteus mirabilis by CLSI M7-A7 broth microdilution method
[7] = tested on: Klebsiella pneumoniae; test: Antibacterial activity against ceftazidime-susceptible Klebsiella pneumoniae assessed as resistant isolates by CLSI M7-A7 broth microdilution method
[8] = tested on: Proteus mirabilis; test: Antibacterial activity against ceftazidime-susceptible Proteus mirabilis assessed as resistant isolates by CLSI M7-A7 broth microdilution method
[9] = tested on: Enterobacter cloacae; test: Antibacterial activity against ceftazidime-susceptible Enterobacter cloacae assessed as susceptible isolates by CLSI M7-A7 broth microdilution method
[10] = tested on: Escherichia coli; test: Antibacterial activity against ceftazidime-nonsusceptible Escherichia coli assessed as susceptible isolates by CLSI M7-A7 broth microdilution method
[11] = tested on: Enterobacter cloacae; test: Antibacterial activity against ceftazidime-nonsusceptible Enterobacter cloacae assessed as susceptible isolates by CLSI M7-A7 broth microdilution method
[12] = tested on: Klebsiella pneumoniae; test: Antibacterial activity against ceftazidime-nonsusceptible Klebsiella pneumoniae assessed as resistant isolates by CLSI M7-A7 broth microdilution method
[13] = tested on: Escherichia coli; test: Antibacterial activity against ceftazidime-nonsusceptible Escherichia coli assessed as resistant isolates by CLSI M7-A7 broth microdilution method
[14] = tested on: Providencia sp.; test: Antibacterial activity against ceftazidime-susceptible Providencia sp. assessed as susceptible isolates by CLSI M7-A7 broth microdilution method
[15] = tested on: Haemophilus influenzae; test: Antibacterial activity against beta lactamase-positive Haemophilus influenzae assessed as resistant isolates by CLSI M7-A7 broth microdilution method
[16] = tested on: Enterobacteriaceae; test: Antibacterial activity against ceftazidime-susceptible Enterobacteriaceae by CLSI M7-A7 broth microdilution method
[17] = tested on: Escherichia coli; test: Antibacterial activity against ceftazidime-susceptible Escherichia coli assessed as susceptible isolates by CLSI M7-A7 broth microdilution method
[18] = tested on: Haemophilus influenzae; test: Antibacterial activity against beta lactamase-positive Haemophilus influenzae by CLSI M7-A7 broth microdilution method
[19] = tested on: Providencia sp.; test: Antibacterial activity against ceftazidime-susceptible Providencia sp. assessed as resistant isolates by CLSI M7-A7 broth microdilution method
[20] = tested on: Providencia sp.; test: Antibacterial activity against ceftazidime-susceptible Providencia sp. by CLSI M7-A7 broth microdilution method
[21] = tested on: Klebsiella pneumoniae; test: Antibacterial activity against ceftazidime-susceptible Klebsiella pneumoniae assessed as susceptible isolates by CLSI M7-A7 broth microdilution method
[22] = tested on: Enterobacteriaceae; test: Antibacterial activity against ceftazidime-nonsusceptible Enterobacteriaceae assessed as resistant isolates by CLSI M7-A7 broth microdilution method
[23] = tested on: Haemophilus influenzae; test: Antibacterial activity against beta lactamase-negative Haemophilus influenzae by CLSI M7-A7 broth microdilution method
[24] = tested on: Serratia marcescens; test: Antibacterial activity against ceftazidime-susceptible Serratia marcescens assessed as susceptible isolates by CLSI M7-A7 broth microdilution method
[25] = tested on: Enterobacteriaceae; test: Antibacterial activity against ceftazidime-susceptible Enterobacteriaceae assessed as susceptible isolates by CLSI M7-A7 broth microdilution method
[26] = tested on: Acinetobacter; test: Antibacterial activity against multidrug-resistant Acinetobacter by CLSI M7-A7 broth microdilution method
[27] = tested on: Escherichia coli; test: Antibacterial activity against ceftazidime-nonsusceptible Escherichia coli by CLSI M7-A7 broth microdilution method
[28] = tested on: Enterobacteriaceae; test: Antibacterial activity against ceftazidime-nonsusceptible Enterobacteriaceae by CLSI M7-A7 broth microdilution method
[29] = tested on: Haemophilus influenzae; test: Antibacterial activity against beta lactamase-positive Haemophilus influenzae assessed as susceptible isolates by CLSI M7-A7 broth microdilution method
[30] = tested on: Klebsiella pneumoniae; test: Antibacterial activity against ceftazidime-nonsusceptible Klebsiella pneumoniae assessed as susceptible isolates by CLSI M7-A7 broth microdilution method
[31] = tested on: Haemophilus influenzae; test: Antibacterial activity against beta lactamase-negative Haemophilus influenzae assessed as susceptible isolates by CLSI M7-A7 broth microdilution method
[32] = tested on: Escherichia coli; test: Antibacterial activity against ceftazidime-susceptible Escherichia coli assessed as resistant isolates by CLSI M7-A7 broth microdilution method
[33] = tested on: Acinetobacter; test: Antibacterial activity against imipenem-susceptible Acinetobacter by CLSI M7-A7 broth microdilution method
[34] = tested on: Escherichia coli; test: Antibacterial activity against ceftazidime-susceptible Escherichia coli by CLSI M7-A7 broth microdilution method
[35] = tested on: Enterobacteriaceae; test: Antibacterial activity against ceftazidime-nonsusceptible Enterobacteriaceae assessed as susceptible isolates by CLSI M7-A7 broth microdilution method
[36] = tested on: Morganella morganii; test: Antibacterial activity against ceftazidime-susceptible Morganella morganii assessed as resistant isolates by CLSI M7-A7 broth microdilution method
[37] = tested on: Citrobacter freundii; test: Antibacterial activity against ceftazidime-susceptible Citrobacter freundii assessed as susceptible isolates by CLSI M7-A7 broth microdilution method
[38] = tested on: Morganella morganii; test: Antibacterial activity against ceftazidime-susceptible Morganella morganii assessed as susceptible isolates by CLSI M7-A7 broth microdilution method
[39] = tested on: Enterobacter cloacae; test: Antibacterial activity against ceftazidime-susceptible Enterobacter cloacae by CLSI M7-A7 broth microdilution method
[40] = tested on: Serratia marcescens; test: Antibacterial activity against ceftazidime-susceptible Serratia marcescens assessed as resistant isolates by CLSI M7-A7 broth microdilution method
[41] = tested on: Citrobacter freundii; test: Antibacterial activity against ceftazidime-susceptible Citrobacter freundii by CLSI M7-A7 broth microdilution method
[42] = tested on: Haemophilus influenzae; test: Antibacterial activity against beta lactamase-negative Haemophilus influenzae assessed as resistant isolates by CLSI M7-A7 broth microdilution method
[43] = tested on: Enterobacter cloacae; test: Antibacterial activity against ceftazidime-susceptible Enterobacter cloacae assessed as resistant isolates by CLSI M7-A7 broth microdilution method
[44] = tested on: Citrobacter freundii; test: Antibacterial activity against ceftazidime-nonsusceptible Citrobacter freundii assessed as resistant isolates by CLSI M7-A7 broth microdilution method
[45] = tested on: Klebsiella pneumoniae; test: Antibacterial activity against ceftazidime-nonsusceptible Klebsiella pneumoniae by CLSI M7-A7 broth microdilution method
[46] = tested on: Citrobacter freundii; test: Antibacterial activity against ceftazidime-nonsusceptible Citrobacter freundii by CLSI M7-A7 broth microdilution method
[47] = tested on: Citrobacter freundii; test: Antibacterial activity against ceftazidime-nonsusceptible Citrobacter freundii assessed as susceptible isolates by CLSI M7-A7 broth microdilution method
[48] = tested on: Morganella morganii; test: Antibacterial activity against ceftazidime-susceptible Morganella morganii by CLSI M7-A7 broth microdilution method
[49] = tested on: Enterobacteriaceae; test: Antibacterial activity against ceftazidime-susceptible Enterobacteriaceae assessed as resistant isolates by CLSI M7-A7 broth microdilution method
[50] = tested on: Enterobacter cloacae; test: Antibacterial activity against ceftazidime-nonsusceptible Enterobacter cloacae assessed as resistant isolates by CLSI M7-A7 broth microdilution method

Question: What does the source list for CC1(C)S[C@@H]2[C@H](NC(=O)[C@H](N)c3ccccc3)C(=O)N2[C@H]1C(=O)O [AMPICILLIN]?
Answer: Activity [1]: 42%; MIC50 [2]: > 32 µg/mL; MIC90 [2]: > 32 µg/mL; Activity [3]: 72.4%; MIC [4]: > 32 µg/mL; MIC50 [4]: > 32 µg/mL; MIC90 [4]: > 16 µg/mL; MIC50 [5]: > 32 µg/mL; MIC90 [5]: > 32 µg/mL; MIC50 [6]: 1 µg/mL (≈ 2.86 µM); MIC90 [6]: > 32 µg/mL; Activity [7]: 80%; Activity [8]: 27.6%; Activity [9]: 20%; Activity [10]: 0%; Activity [11]: 0%; Activity [12]: 100%; Activity [13]: 100%; Activity [14]: 22.2%; Activity [15]: 97%; MIC50 [16]: 32 µg/mL (≈ 91.6 µM); MIC90 [16]: > 32 µg/mL; Activity [17]: 58.3%; MIC50 [18]: 32 µg/mL (≈ 91.6 µM); MIC90 [18]: > 32 µg/mL; Activity [19]: 66.7%; MIC50 [20]: 32 µg/mL (≈ 91.6 µM); MIC90 [20]: > 32 µg/mL; Activity [21]: 5.2%; Activity [22]: 100%; MIC [23]: ≤ 0.25 µg/mL; MIC50 [23]: ≤ 0.25 µg/mL; MIC90 [23]: 0.5 µg/mL (≈ 1.43 µM); Activity [24]: 3.4%; Activity [25]: 35.2%; MIC [26]: > 32 µg/mL; MIC50 [26]: > 32 µg/mL; MIC [27]: > 32 µg/mL; MIC50 [27]: > 32 µg/mL; MIC90 [27]: > 32 µg/mL; MIC [28]: > 32 µg/mL; MIC50 [28]: > 32 µg/mL; MIC90 [28]: > 32 µg/mL; Activity [29]: 2%; Activity [30]: 0%; Activity [31]: 99%; Activity [32]: 40.9%; MIC50 [33]: 16 µg/mL (≈ 45.8 µM); MIC90 [33]: > 32 µg/mL; MIC50 [34]: 4 µg/mL (≈ 11.4 µM); MIC90 [34]: > 32 µg/mL; Activity [35]: 0%; Activity [36]: 85.3%; Activity [37]: 36%; Activity [38]: 8.8%; MIC50 [39]: 32 µg/mL (≈ 91.6 µM); MIC90 [39]: > 32 µg/mL; Activity [40]: 83.1%; MIC50 [41]: 16 µg/mL (≈ 45.8 µM); MIC90 [41]: > 32 µg/mL; Activity [42]: 1%; Activity [43]: 66%; Activity [44]: 100%; MIC [45]: > 32 µg/mL; MIC50 [45]: > 32 µg/mL; MIC90 [45]: > 32 µg/mL; MIC [46]: > 32 µg/mL; MIC50 [46]: > 32 µg/mL; MIC90 [46]: > 32 µg/mL; Activity [47]: 0%; MIC50 [48]: > 32 µg/mL; MIC90 [48]: > 32 µg/mL; Activity [49]: 57%; Activity [50]: 100%

Source: ChEMBL document CHEMBL1671626, “In vitro profiling of ceftaroline against a collection of recent bacterial clinical isolates from across the United States” (2008)
